From patent US6624188B1, “Method of treatment with compounds having retinoid-like activity and reduced skin toxicity and lacking teratogenic effects” (Allergan, Inc., priority 1992, dated 2003)

Tested on: gestating ICR mice
Experiment: in vivo teratology study, single oral dose on day 11 of gestation
Parameters: species or system mouse
Conditions: female, ICR, mouse, in vivo, 17 day of gestation; for # Litters Normal / Teratogenic Effects % Cleft Palate / Teratogenic Effects % Limb Defects / Teratogenic Effects % Resorbed: po
Experimental: The methodology of the study is described as follows:
ICR mice (Ace Animals, Boyertown, Pa.) were used. Mature male and virgin female ICR mice were housed in environmentally controlled rooms and acclimatized to a 12 hour light/dark cycle (light cycle 6 A.M. to 6 P.M.) for 2 weeks prior to use. All animals were maintained on Purina Lab Chow and tap water ad libitum. A group of 3-4 females was caged with a single male of proven fertility for 4 hours. Presence of a vaginal plug immediately afterward was regarded as evidence of successful mating, and this day was designated as day 0 of gestation.
[…] All animals were killed by cervical dislocation under mild ether anesthesia on day 17 of gestation. Upon laparotomy, the fetuses were examined for external malformations and weighed; one-half of each litter was then fixed in 95% ethanol and processed for staining of the skeleton by the rapid, alizarin red-S dye method. These preparations were examined under a dissection microscope to screen for abnormalities in the axial and the appendicular skeleton. The other half of each litter was fixed in Bouin's solution and examined by freehand razor serial sectioning to screen for anomalies of the brain, face, and palate.
Differences in dose-related incidence of malformations and resorptions were assessed by computing percentages of affected conceptuses among total implantation sites. The groups were compared statistically by a method based on Student's t-tests of arcs in square root transformed percentages. Values at 0.05 probability level were considered significant. The median effective dose was calculated by logarithmic curve fitting of the dose-response data.

C/C(=C\c1ccc(C(=O)O)cc1)c1ccc2c(c1)C(C)(C)CCC2(C)C [AGN 191183, reference compound]
litters that exhibited teratogenic effects (0.1 mg/kg): 100% | # Litters Normal (0.01 mg/kg): 2 | Teratogenic Effects % Cleft Palate (0.01 mg/kg): 29% | Teratogenic Effects % Limb Defects (0.01 mg/kg): 20% | Teratogenic Effects % Resorbed (0.01 mg/kg): 3% | # Litters Normal (0.1 mg/kg): 0 | Teratogenic Effects % Cleft Palate (0.1 mg/kg): 100% | Teratogenic Effects % Limb Defects (0.1 mg/kg): 100% | Teratogenic Effects % Resorbed (0.1 mg/kg): 30% | # Litters Normal (1 mg/kg): 0 | Teratogenic Effects % Resorbed (1 mg/kg): 100% | # Litters Normal (10 mg/kg): 0 | Teratogenic Effects % Resorbed (10 mg/kg): 100%
